The results in this text go back to US11773373B2, “Method for amplifying CD8+T cells and cell subpopulations thereof in-vitro” (Shanghai Innovative Chang'An Biological Technology Co., Ltd., priority 2017, dated 2023).

The subject of assay [1] is central memory CD8+ T cells (TCM). The assay can be described thus: Proliferation of the central memory subpopulation of CD8+ T cells of healthy subjects. In kind it is cell-based. Conditions: in combination with anti-human CD3 antibody, compared with anti-human CD3 beads alone, 7 days. As for the experimental part: (§1) 1. Peripheral blood mononuclear cells (PBMC) of healthy subjects were isolated.
(§2) 2. CD8+ T cells were sorted using an EasySep™ Negative Selection Human CD8+ T cell Enrichment kit (stem cell: 19053).
(§3) 3. The sorted CD8 cells were stained using Cell Proliferation Dye eFluor 670 (ebioscience: 65-0840-90).
(§4) 4. The cells were placed in a 96-well U-shaped bottom plate with 1×10^5 cells per well.
(§5) 5. The following stimulants and TLR agonists (invivoGen: tlr-kit1hw, human TLR1-9 Agonist KIT) were added in groups:
(§6) (The anti-human CD3 antibody used was magnetic beads coated with the antibody (CELLection Pan Mouse IgG Kit, Invitrogen: 11531D), wherein the ratio of the cells to the magnetic beads was 1:1)
(§7) 6. The cells were cultured in the 96-well U-shaped bottom plate, and cultured in a cell incubator for 7 days.
(§8) 7. The cells were labeled with antibodies CD8 (BD: 561423), CD45RA (eBioscience: 25-0458-42) and CCR7 (eBioscience: 17-1979-42), and the influence of different TLR agonists on the proliferation of CD8+ T subpopulations (TNaive: Naive T cells, TCM: central memory T cells, TEM: effector memory T cells) was detected by flow cytometry.

The test system is the same in assay [2]. Nature of the assay: Proliferation of the central memory subpopulation of CD8+ T cells of HIV-1 infected individuals. In kind it is cell-based, human. Conditions: 7 days.
From the text: (§9) 1. Peripheral blood mononuclear cells (PBMC) of HIV-1 infected individuals were isolated.
(§10) 2. CD8+ T cells were sorted using an EasySep™ Negative Selection Human CD8+ T cell Enrichment kit (Stemcell: 19053).
as §3, §4, §5
(§11) (The anti-human CD3 antibody and the anti-human CD28 antibody in the form of coated magnetic beads (CELLection Pan Mouse IgG Kit, Invitrogen: 11531D) were used to stimulate the cells, wherein the ratio of the cells to the magnetic beads was 1:1)
as §7
(§12) 7. The cells were labeled with antibodies CD8 (BD: 561423), CD45RA (eBioscience: 25-0458-42) and CCR7 (eBioscience: 17-1979-42), and the influence of different TLR agonists on the proliferation of CD8+ T subpopulations (TNaive: Naive T cells, TCM: central memory T cells, TEM: effector memory T cells) was detected by a flow cytometer.

The subject of assay [3] is effector memory T cells (TEM). The assay can be described thus: Proliferation of the effector memory subpopulation of CD8+ T cells of healthy subjects. It counts as cell-based. The conditions noted are these: in combination with anti-human CD3 antibody, compared with anti-human CD3 beads alone, 7 days. As for the experimental part: as §1, §2, §3, §4, §5, §6, §7, §8

Assay [4] relates to effector memory T cells (TEM). Nature of the assay: Proliferation of the effector memory subpopulation of CD8+ T cells of HIV-1 infected individuals. It counts as cell-based, human. The conditions noted are these: 7 days.
From the text: as §9, §10, §3, §4, §5, §11, §7, §12

The subject of a further assay is CD8+ T cells. Nature of the assay: Proliferation of sorted CD8+ T cells of healthy subjects (eFluor 670 dye, flow cytometry, 7 days). It counts as cell-based. The conditions noted are these: in combination with anti-human CD3 antibody, compared with magnetic beads coated with anti-human CD3 antibody alone.
From the text: 1. Peripheral blood mononuclear cells (PBMC) of healthy subjects were isolated according to Example 1.
as §10, §3, §4, §5
(The anti-human CD3 antibody and the anti-human CD28 antibody used were magnetic beads coated with the antibodies (CELLection Pan Mouse IgG Kit, Invitrogen: 11531D), wherein the ratio of the cells to the magnetic beads was 1:1)
as §7
7. The proliferation of the CD8+ T cells was detected by a flow cytometer under the stimulation conditions of different TLR agonists. FIG. 1A is a diagram showing the proliferation of CD8 cells under the conditions of blank control (left panel) as well as an anti-human CD3 antibody and an anti-human CD28 antibody (right panel). FIG. 1B is a statistical chart showing the proliferation proportion of CD8 cells under different stimulation conditions.

[5] abbreviates: added to anti-human CD3/28 beads, compared with anti-human CD3/28 beads.
[6] abbreviates: added to anti-human CD3 beads, compared with anti-human CD3 beads alone.

As for FSL-1, the “proliferation of central memory CD8+ T cells (TCM)” value in assay [1] is given as “effectively stimulated”; in assay [2] (setting [5]), “further enhanced”; in assay [2] (setting [6]), “more effectively stimulated”. The “proliferation of effector memory T cells (TEM)” value in assay [3] was “effectively stimulated”; in assay [4] (setting [5]), “further enhanced”; in assay [4] (setting [6]), “more effectively stimulated”. Also, the “proliferation of CD8+ T cells” value with CD8+ T cells is “effectively stimulated”.

B1: Flagellin: TLR5 agonist, S. typhimurium Flagellin (invivoGen: tlrl-epstfla-5) (protein, UniProt P06179 2-495, looked up)
Flagellin: AQVINTNSLSLLTQNNLNKSQSALGTAIERLSSGLRINSAKDDAAGQAIANRFTANIKGLTQASRNANDGISIAQTTEGALNEINNNLQRVRELAVQSANSTNSQSDLDSIQAEITQRLNEIDRVSGQTQFNGVKVLAQDNTLTIQVGANDGETIDIDLKQINSQTLGLDTLNVQQKYKVSDTAATVTGYADTTIALDNSTFKASATGLGGTDQKIDGDLKFDDTTGKYYAKVTVTGGTGKDGYYEVSVDKTNGEVTLAGGATSPLTGGLPATATEDVKNVQVANADLTEAKAALTAAGVTGTASVVKMSYTDNNGKTIDGGLAVKVGDDYYSATQNKDGSISINTTKYTADDGTSKTALNKLGGADGKTEVVSIGGKTYAASKAEGHNFKAQPDLAEAAATTTENPLQKIDAALAQVDTLRSDLGAVQNRFNSAITNLGNTVNNLTSARSRIEDSDYATEVSNMSRAQILQQAGTSVLAQANQVPQNVLSLLR
In the case of B1, the “proliferation of central memory CD8+ T cells (TCM)” value in assay [1] is “effectively stimulated”; in assay [2] (setting [5]) it was “further enhanced”; in assay [2] (setting [6]), “more effectively stimulated”. The “proliferation of effector memory T cells (TEM)” value in assay [3] is on record as “effectively stimulated”; in assay [4] (setting [5]), “further enhanced”; in assay [4] (setting [6]), “more effectively stimulated”. Moreover, in the assay on CD8+ T cells, the “proliferation of CD8+ T cells” value is “effectively stimulated”.
